Several values for one entry are separate records, joined by “and”; a condition that tells them apart may be missing. Identical values can stand only once. Entries after “also recorded” stand apart in the source; their conditions may differ.
Key:
[1] = Adverse reactions in Studies 1 and 2; assay type: in vivo, human
Text: In two randomized, double-blind, placebo-controlled, Ph. […] Of the ubrogepant-treated patients in these two studies, approximately 89% were female, 82% were white, 15% were Black, and 17% were of Hispanic or Latino ethnicity. The mean age at study entry was 41 years (range of 18-75 years).

[2] = Study B: drug interaction PK with rifampin; assay type: in vivo, human; conditions: for half-life: read-out: Apparent terminal t1/2, mean (SD) (converted)
Text: Study B (rifampin) had two treatment periods. […] All treatments were received under fasted conditions.
Healthy adults aged 19-50 years for Study A and 18-45 years for Study B were eligible to participate. […] For study B, participants had to have a BMI between 18.0 and 30 kg/m^2. Exclusion criteria for both studies included hypersensitivity to any study drug; exposure to hepatitis B virus, hepatitis C virus, or HIV; or use of any drug or substance known to affect CYP enzymes or P-gp.

Study A: safety = assay type: in vivo, human
Description: Study A (verapamil and ketoconazole) comprised 3 treatment periods. […] Ubrogepant was administered under fasted conditions.

plasma protein [3] = assay: Plasma protein binding by equilibrium dialysis (hepatic impairment study); assay type: in vitro ADME, human
Description: (§1) Sampling was also done at the following times for plasma protein binding determinations: Day 1 at 0 hour (predose) and 2 hours post dose.
Protein binding blood samples were collected from all participants starting on Day 1 at 0 hour (predose) and at 2 hours post-dose. The pre-dose samples collected prior to dosing for each participants were spiked with known quantities of ubrogepant.

plasma protein [4] = assay: Plasma protein binding in vitro; assay type: in vitro ADME
[5] = Phase 1 hepatic impairment PK study, single 100 mg dose; assay type: in vivo, human; conditions: 100 mg single oral dose; for AUC(0-inf) / AUC(0-t) / Cmax / Tmax / Vd/F / half-life: both sexes, human, plasma, po, 100 mg; for Tmax: read-out: Tmax, median (min-max); for Vd/F: read-out: Vz/F, mean ±SD; for half-life: read-out: t1/2, mean ±SD (converted)
Text: The study was intended to enroll 24 male and female participants with hepatic impairment (8 mildly impaired, 8 moderately impaired, and 8 severely impaired) and 8 healthy male and female participants with normal hepatic function, aged 18 through 75 years, who were matched closely to the age, weight, and gender of the hepatically impaired groups.
Participants with hepatic impairment were categorized according to the Child-Pugh classification. Participants with moderate hepatic impairment (Child-Pugh B classification) were not enrolled until 4 patients with mild hepatic impairment (Child-Pugh A classification) had completed the study; participants with severe hepatic impairment (Child-Pugh C classification) were not to be enrolled until 4 patients with moderate hepatic impairment had completed the study. […] Healthy participants with normal hepatic function were recruited after participants with hepatic impairment had been enrolled in the study, in order to match them as closely as possible to the hepatically impaired participants with respect to age, weight, and gender. Participants with normal hepatic function were matched specifically according to age, not to exceed 5 years between the means of the normal group and the 3 hepatically impaired groups. Weight range deviated<20% between the means of the normal group and the 3 hepatically impaired groups; and gender, as much as possible to match the ratio of the normal hepatic function group to the 3 hepatically impaired groups.
Fasting continued for 4 hours after dosing. Because minimal to no accumulation was expected after once daily repeated dosing for ubrogepant, a single-dose study was considered adequate to satisfy the objectives of the present study.
as §1

[6] = Studies 1 and 2, 50 mg (N = 954)
[7] = Studies 1 and 2, 100 mg (N = 485)
[8] = coadministered with rifampin 600 mg vs alone
[9] = ubrogepant 100 mg + rifampin 600 mg
[10] = ubrogepant 100 mg alone, listed as Ubrogepant

C[C@@H]1[C@H](c2ccccc2)C[C@H](NC(=O)c2cnc3c(c2)C[C@@]2(C3)C(=O)Nc3ncccc32)C(=O)N1CC(F)(F)F [ubrogepant, (3′S)-N-((3S,5S,6R)-6-methyl-2-oxo-5-phenyl-1-(2,2,2-trifluoroethyl)piperidin-3-yl)-2′-oxo-1′,2′,5,7-etrahydrospiro[cyclopenta[b]pyridine-6,3′-pyrrolo[2,3-b]pyridine]-3-carboxamide]
Dry Mouth [1, 6]: <1% | Nausea [1, 6]: 2% | Somnolence (includes sedation and fatigue) [1, 6]: 2% | Dry Mouth [1, 7]: 2% | Nausea [1, 7]: 4% | Somnolence (includes sedation and fatigue) [1, 7]: 3% | reduction in ubrogepant AUC0-t [2, 8]: 78% | reduction in ubrogepant Cmax [2, 8]: 69% | AUC(0-t) ([2]; human, plasma, oral, 100 mg, ubrogepant 100 mg alone, read-out: AUC0-t, mean (SD)): 1880 ng·h/mL | AUC(0-inf) ([2]; human, plasma, oral, 100 mg, ubrogepant 100 mg alone, read-out: AUC0-∞, mean (SD)): 1910 ng·h/mL | half-life ([2]; human, plasma, oral, 100 mg, ubrogepant 100 mg alone): 4.4 h | Cmax ([2]; human, plasma, oral, 100 mg, ubrogepant 100 mg alone, read-out: Cmax, mean (SD)): 416 ng/mL | AUC(0-t) ([2]; human, plasma, oral, 100 mg, ubrogepant 100 mg alone, read-out: Geometric LSM AUC0-t, Reference): 1720 ng·h/mL | AUC(0-inf) ([2]; human, plasma, oral, 100 mg, ubrogepant 100 mg alone, read-out: Geometric LSM AUC0-∞, Reference): 1750 ng·h/mL | Cmax ([2]; human, plasma, oral, 100 mg, ubrogepant 100 mg alone, read-out: Geometric LSM Cmax, Reference): 375 ng/mL | Tmax ([2]; human, plasma, oral, 100 mg, read-out: Tmax, median (range)): 2 h | Vd/F ([2]; human, plasma, oral, 100 mg, read-out: Vz/F): 390 ± 174 L | AUC(0-t) ([2]; human, plasma, oral, rifampin 600 mg in combination with ubrogepant 100 mg, read-out: Geometric LSM AUC0-t, Test): 378 ng·h/mL | AUC(0-inf) ([2]; human, plasma, oral, rifampin 600 mg in combination with ubrogepant 100 mg, read-out: Geometric LSM AUC0-∞, Test): 379 ng·h/mL | Cmax ([2]; human, plasma, oral, rifampin 600 mg in combination with ubrogepant 100 mg, read-out: Geometric LSM Cmax, Test): 118 ng/mL | AUC(0-t) ([2]; human, plasma, oral, ubrogepant 100 mg + rifampin 600 mg, read-out: AUC0-t, mean (SD)): 396 ng·h/mL | AUC(0-inf) ([2]; human, plasma, oral, ubrogepant 100 mg + rifampin 600 mg, read-out: AUC0-∞, mean (SD)): 397 ng·h/mL | half-life ([2]; human, plasma, oral, ubrogepant 100 mg + rifampin 600 mg): 3 h | Cmax ([2]; human, plasma, oral, ubrogepant 100 mg + rifampin 600 mg, read-out: Cmax, mean (SD)): 136 ng/mL | Apparent terminal t1/2, mean (SD) [2, 9]: 3.04 (0.64) h | CL/F [2, 9]: 282.87 ± 103.74 L/h | CL/F ([2]; ubrogepant 100 mg alone): 62.77 ± 28.33 L/h | Tmax, median (range) ([2]; ubrogepant 100 mg alone): 2 h | Apparent terminal t1/2, mean (SD) [2, 10]: 4.36 (0.75) h | Tmax, median (range) [2, 10]: 2.00 (1.00-4.00) h | exposure of ubrogepant on co-administration ([2]; with rifampin, a strong CYP3A4 inducer): significant reduction in ubrogepant exposure | elevations in serum transaminases or bilirubin (Study A: safety; Study A): no participants experienced elevations in serum transaminases or bilirubin greater than or equal to 2-fold ULN | total TEAEs reported (Study A: safety; Study A, all treatment periods): 39 TEAEs | safety and tolerability (Study A: safety; single oral dose coadministered with multiple doses of verapamil or ketoconazole, healthy adults): safe and generally well tolerated; also recorded: safe and generally well-tolerated | percentage of protein-bound ubrogepant (plasma protein [3]; 0 hr (predose sample spiked with ubrogepant), mild-impaired): 88.87 ± 1.12% | percentage of protein-bound ubrogepant (plasma protein [3]; 0 hr (predose sample spiked with ubrogepant), moderate-impaired): 87.42 ± 1.89% | percentage of protein-bound ubrogepant (plasma protein [3]; 0 hr (predose sample spiked with ubrogepant), normal hepatic function): 88.52 ± 0.84% | percentage of protein-bound ubrogepant (plasma protein [3]; 0 hr (predose sample spiked with ubrogepant), severe-impaired): 84.58 ± 0.91% | percentage of protein-bound ubrogepant (plasma protein [3]; 2 hr post-dose, 100 mg, mild-impaired): 89.9% and 89.85 ± 1.33% | percentage of protein-bound ubrogepant (plasma protein [3]; 2 hr post-dose, 100 mg, moderate-impaired): 88.2% and 88.24 ± 1.02% | percentage of protein-bound ubrogepant (plasma protein [3]; 2 hr post-dose, 100 mg, normal hepatic function): 89.3% and 89.28 ± 1.54% | percentage of protein-bound ubrogepant (plasma protein [3]; 2 hr post-dose, 100 mg, severe-impaired): 85.3% and 85.27 ± 0.94% | fraction unbound (plasma protein [4]): 0.13 | CL/F, mean ±SD ([5]; mild hepatic impairment): 66.38 ± 26.15 L/h | AUC0-∞ (exposure) higher than in normal hepatic function ([5]; moderate hepatic impairment): 52% and 50% | CL/F, mean ±SD ([5]; moderate hepatic impairment): 49.78 ± 23.84 L/h | Cmax higher than in normal hepatic function ([5]; moderate hepatic impairment): 25% | CL/F, mean ±SD ([5]; normal hepatic function): 69.01 ± 23.54 L/h | AUC0-∞ (exposure) higher than in normal hepatic function ([5]; severe hepatic impairment): 115% | CL/F, mean ±SD ([5]; severe hepatic impairment): 31.23 ± 7.49 L/h | Cmax higher than in normal hepatic function ([5]; severe hepatic impairment): 40% | AUC(0-inf) ([5]; mild hepatic impairment, read-out: AUC0-inf, mean ±SD): 1760 ± 775 ng·h/mL | AUC(0-t) ([5]; mild hepatic impairment, read-out: AUC0-t, mean ±SD): 1750 ± 767 ng·h/mL | Cmax ([5]; mild hepatic impairment, read-out: Cmax, mean ±SD): 411 ± 190 ng/mL | Tmax ([5]; mild hepatic impairment): 1.5 h | Vd/F ([5]; mild hepatic impairment): 559 ± 358 L | half-life ([5]; mild hepatic impairment): 6.56 ± 5.93 h | AUC(0-t) ([5]; mild-impaired, read-out: Geometric LSM AUC0-t, Test): 1610 ng·h/mL | AUC(0-inf) ([5]; mild-impaired, read-out: Geometric LSM AUC0-∞, Test): 1630 ng·h/mL | Cmax ([5]; mild-impaired, read-out: Geometric LSM Cmax, Test): 375 ng/mL | AUC(0-inf) ([5]; moderate hepatic impairment, read-out: AUC0-inf, mean ±SD): 2820 ± 2060 ng·h/mL | AUC(0-t) ([5]; moderate hepatic impairment, read-out: AUC0-t, mean ±SD): 2780 ± 2020 ng·h/mL | Cmax ([5]; moderate hepatic impairment, read-out: Cmax, mean ±SD): 480 ± 189 ng/mL | Tmax ([5]; moderate hepatic impairment): 2 h | Vd/F ([5]; moderate hepatic impairment): 365 ± 130 L | half-life ([5]; moderate hepatic impairment): 5.95 ± 2.68 h | AUC(0-t) ([5]; moderate-impaired, read-out: Geometric LSM AUC0-t, Test): 2300 ng·h/mL | AUC(0-inf) ([5]; moderate-impaired, read-out: Geometric LSM AUC0-∞, Test): 2320 ng·h/mL | Cmax ([5]; moderate-impaired, read-out: Geometric LSM Cmax, Test): 449 ng/mL | AUC(0-inf) ([5]; normal hepatic function, read-out: AUC0-inf, mean ±SD): 1600 ± 533 ng·h/mL | AUC(0-t) ([5]; normal hepatic function, read-out: AUC0-t, mean ±SD): 1590 ± 530 ng·h/mL | Cmax ([5]; normal hepatic function, read-out: Cmax, mean ±SD): 406 ± 219 ng/mL | AUC(0-t) ([5]; normal hepatic function, read-out: Geometric LSM AUC0-t, Reference): 1510 ng·h/mL | AUC(0-inf) ([5]; normal hepatic function, read-out: Geometric LSM AUC0-∞, Reference): 1520 ng·h/mL | Cmax ([5]; normal hepatic function, read-out: Geometric LSM Cmax, Reference): 360 ng/mL | Tmax ([5]; normal hepatic function): 1.75 h | Vd/F ([5]; normal hepatic function): 533 ± 320 L | half-life ([5]; normal hepatic function): 5.6 ± 3.68 h | AUC(0-inf) ([5]; severe hepatic impairment, read-out: AUC0-inf, mean ±SD): 3330 ± 705 ng·h/mL | AUC(0-t) ([5]; severe hepatic impairment, read-out: AUC0-t, mean ±SD): 3310 ± 704 ng·h/mL | Cmax ([5]; severe hepatic impairment, read-out: Cmax, mean ±SD): 509 ± 75.8 ng/mL | Tmax ([5]; severe hepatic impairment): 1.5 h | Vd/F ([5]; severe hepatic impairment): 248 ± 29.9 L | half-life ([5]; severe hepatic impairment): 5.62 ± 0.62 h | AUC(0-t) ([5]; severe-impaired, read-out: Geometric LSM AUC0-t, Test): 3250 ng·h/mL | AUC(0-inf) ([5]; severe-impaired, read-out: Geometric LSM AUC0-∞, Test): 3270 ng·h/mL | Cmax ([5]; severe-impaired, read-out: Geometric LSM Cmax, Test): 505 ng/mL

Reference: patent publication US20240180883A1, “TREATMENT OF MIGRAINE” (Allergan Pharmaceuticals International Limited, priority 2020, published 2024)
